US8633177B2, “Nitroxyl (HNO) releasing compounds and uses thereof in treating diseases” (The United States of America, as represented by the …, priority 2010, dated 2014)

Experiments:
stomach ulcers = assay: Ulcerogenicity (ulcer index) after oral administration; assay type: in vivo, rats; settings: for Ulcer Index: 6 h after oral administration, equivalent to 250 mg/kg aspirin; for UI (ulcer index): as given in the text
Protocol: Ulcerogenicity was evaluated 6 h after oral administration of 250 mg/kg of aspirin (250 mg/kg) and an equivalent amount of the corresponding test compound. The compounds were suspended in 1.7 mL of a 1% methylcellulose solution and administered. The control rats received oral administration of a vehicle (1.7 mL of 1.0% methylcellulose solution). The rats were euthanized in a CO2 chamber and their stomachs and placed on ice and then the ulcers were studied using magnifying glass.

HUVEC cells = assay: Tube formation (angiogenesis) on Matrigel; assay type: cell-based; settings: 12 h, even at 1 μM, compared to control
Protocol: To determine the effect of NO and HNO releasing aspirin on angiogenesis, HUVEC cells were treated with the compounds and tube formation was studied after 12 h. Matrigel (50 μL) was added to each well in a 96 well plate and incubated for 2 h at 37° C. Cell suspension treated with different concentrations of IPA/NO-aspirin, DEA/NO-aspirin and controls was added to each well at a concentration of 20,000 cells per well. After 12 hours, tube formation was measured using a microscope.

[1] = test system: MB-231 cells stably transfected with green fluorescent protein (GFP); assay: Tumor size in nude mice implanted with MB-231-GFP cells; assay type: in vivo; settings: daily injection for 5 weeks, equi-molar dosages, compared to control
Protocol: 40 Nude mice were implanted with 7.5E5 MB-231 cells stably transfected with green fluorescent protein (GFP) per animal and allowed to grow for 14 days. The animals were randomly divided into four groups: untreated as a control, aspirin treated, IPA/NO-aspirin and DEA/NO-aspirin. Treated groups were injected daily with equi-molar dosages of the corresponding compounds (DEA/NO-aspirin=16.25 mg/Kg, IPA/NO-aspirin=15.75 mg/Kg, Aspirin=9 mg/Kg) for the next 5 weeks daily and the tumor size was measured using in vivo fluorescent imaging for quantification of the GFP tag (FIG. 9A (mammary tumor) and FIG. 9B (brain tumor)). The animals were then sacrificed to assess their brain for metastasis.

caspase-3 = assay: Caspase-3 fluorescence assay, MDA-MB-468; assay type: cell-based, human; settings: 12 h
Protocol: The caspase-3 activity in the presence of IPA/NO-ASA and DEA/NO-ASA was measured using caspase-3 fluorescence assay kit (Cat No. 10009135, Cayman Chemical). Cells were plated at a concentration of 50,000 cells per well in a 96 well plate and grown overnight. Then the cells were treated with different concentrations of the compounds and controls for 12 h. After 12 h, the plate was centrifuged at 800 g and the media was removed by aspiration. 100 μL of lysis buffer was added to each well and the plate was incubated for […] at room temperature. 100 μL of a caspase-3 substrate solution was added to each well and incubated for 30 min after which the fluorescence was read at excitation of 485 nm and emission of 535 nm.

A549 cells = assay: MTT proliferation assay, A549 cells; assay type: cell-based; settings: 48 h
Protocol: The effect of compounds 4 and 8 was studied on proliferation of A549 cells by 3-(4,5-Dimethylthiazol-2-yl)-2,5-diphenyltetrazolium bromide (MTT) assay. Cells were plated at a concentration of 10,000 cells per well in a 96 well plate and grown overnight. Then the cells were treated with different concentration of the compounds and controls for 48 h. After 48 h, a solution of 2 mg/ml MTT was added to each well and incubated for 1 hr. The media was then removed from each well and 100 μL DMSO was added to each well and the absorbance was recorded at 550 nm.

[2] = target: T1, glyceraldehyde-3-phosphate dehydrogenase (GAPDH) (Homo sapiens, UniProt P04406); assay: GAPDH activity, MCF-10A; assay type: cell-based; set-up: endogenous in cells; settings: MCF-10A cell line
T1 sequence (P04406 whole entry): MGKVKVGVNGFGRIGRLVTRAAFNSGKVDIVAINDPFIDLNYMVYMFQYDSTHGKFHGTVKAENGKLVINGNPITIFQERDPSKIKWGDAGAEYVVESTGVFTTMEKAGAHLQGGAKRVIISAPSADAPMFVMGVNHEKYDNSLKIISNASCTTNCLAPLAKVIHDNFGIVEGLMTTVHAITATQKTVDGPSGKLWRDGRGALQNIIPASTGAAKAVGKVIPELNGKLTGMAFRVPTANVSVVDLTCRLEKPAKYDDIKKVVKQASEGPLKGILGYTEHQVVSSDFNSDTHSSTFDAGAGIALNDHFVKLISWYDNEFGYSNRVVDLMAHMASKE
Protocol: Cells were plated at a concentration of 30,000 cells per well and grown overnight. Cells were treated with 100 μM IPA/NO-aspirin and DEA/NO-aspirin for 1, 3, and 6 h after which 200 μL of KDalert lysis buffer was added to each well. The plate was incubated at 4° C. for 20 min to lyse the cells. 10 μL of cell lysate was transferred to a clean 96 well plate and 90 μL of KDalert mastermix was added to each well and the fluorescence was measured at excitation of 540 nm and emission of 570 nm.

[3] = target: T1, glyceraldehyde-3-phosphate dehydrogenase (GAPDH); assay: GAPDH activity in A549 cells (KDalert); assay type: cell-based; set-up: GAPDH activity in A549 cells at different time points; endogenous in cells; host or cells: A549
Protocol: In an effort to decipher the mechanism of action of compounds 4 and 8, their effect on glyceraldehyde-3-phosphate dehydrogenase (GAPDH) activity was measured. GAPDH is a glycolytic enzyme which reversibly catalyzes the oxidation of D-glyceraldehyde-3-phosphate to 1,3-diphosphoglycerate. This method utilizes the conversion of NAD^+ to NADH by GAPDH in the presence of glyceraldehydes-3-phosphate and phosphate, which can be measured at an excitation of 560 nm and emission of 590 nm.
Cells were plated at a concentration of 30,000 cells per well and grown overnight. Then they were treated with 100 μM IPA/NO-aspirin and DEA/NO-aspirin for 1, 3, and 6 h followed by which 200 μL of KDalert lysis buffer was added to each well. The plate was incubated at 4° C. for 20 min to lyse the cells. Then 10 μL of cell lysate was transferred to a clean 96 well plate and 90 μL of KDalert mastermix was added to each well and fluorescence was measured at excitation of […]. […] It is also a critical glycolytic enzyme that can play an important role in cancer therapy as solid tumors are known to utilize glycolytic pathways even during normoxia to meet energy requirements (Gatenby et al., Nat. Rev. Cancer, 4(11):891099 (2004)). Thus, inhibition of GAPDH can diminish the […] of tumor cells.

Compound | Ulcer Index (stomach ulcers) [mg/kg] | UI (ulcer index) (stomach ulcers) | angiogenesis (tube formation) (HUVEC cells) | tumor size [1] | Caspase-3 Activity (caspase-3; MDA-MB-468, 25 μM) [U/mL] | Caspase-3 Activity (caspase-3; MDA-MB-468, 50 μM) [U/mL] | Caspase-3 Activity (caspase-3; MDA-MB-468, 100 μM) [U/mL] | toxicity in MTT assay (A549 cells) | GAPDH Activity [2] | GAPDH Activity [3]
CCN(CC)[N+]([O-])=NOCOC(=O)c1ccccc1OC(C)=O [DEA/NO-aspirin, O^2-(Acetylsalicyloyloxymethyl)-1-(N,N-Diethylamino)-diazen-1-ium-1,2-diolate] | 0 | 0 | reduced angiogenesis | effective in reducing the tumor size | 0.40 | 0.38 | 0.81 |  |  | 
CC(=O)Oc1ccccc1C(=O)OCON=[N+]([O-])NC(C)C [IPA/NO-aspirin, O^2-(Acetylsalicyloyloxymethyl)-1-(N-isopropylamino)-diazen-1-ium-1,2-diolate] | 3.3 ± 3 | 3.0+3.0 | reduced angiogenesis | effective in reducing the tumor size | 0.60 | 0.60 | 0.50 | slightly higher toxicity than compound 8 | did not inhibit GAPDH activity | inhibition of GAPDH activity at micro-molar concentrations
